PubChem BioAssay (NCI)
Several values for one entry are separate records, joined by “and”; a condition that tells them apart may be missing. Equal entries are not always repeated.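 Protocol summary: plate cells (96-well), add compound at 5 concentrations, incubate 48 h, interpolate endpoints linearly. The concentration for 50% growth inhibition is given as GI50. TGI: concentration producing complete growth inhibition.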

Legend:
Assay in all cases: NCI anticancer screen, dose series, 48 h
[1] = tested on: K-562 leukemia
[2] = tested on: HT29 colon
[3] = tested on: NCI-H522 lung
[4] = tested on: CAKI-1 renal
[5] = tested on: HCT-116 colon
[6] = tested on: TK-10 renal
[7] = tested on: SF-539 CNS
[8] = tested on: EKVX NSCLC
[9] = tested on: MCF7 breast
[10] = tested on: MDA-MB-435

Row | SMILES | GI50 [1] [µM] | TGI [1] [µM] | GI50 [2] [µM] | TGI [2] | GI50 [3] [µM] | TGI [3] | GI50 [4] [µM] | TGI [4] [µM] | GI50 [5] [µM] | TGI [5] | GI50 [6] [µM] | TGI [6] [µM] | GI50 [7] [µM] | TGI [7] | GI50 [8] [µM] | TGI [8] [µM] | GI50 [9] [µM] | TGI [9] [µM] | GI50 [10] [µM] | TGI [10] [µM]
1 | CCC(C)(C)[C@H](NC(=O)[C@H]1CCCCN1C)C(=O)N(C)[C@H](C[C@@H](OC(C)=O)c1nc(C(=O)N[C@@H](Cc2ccccc2)C[C@H](C)C(=O)O)cs1)C(C)C | < 0.00167 | > 16.7 | < 0.00167 | > 16.7 µM | < 0.00167 | 0.00583 µM | < 0.00167 | > 16.7 | < 0.00167 | > 16.7 µM | 0.253 | > 16.7 | < 0.00167 | < 0.00167 µM | < 0.00167 | > 16.7 | < 0.00167 | > 16.7 | – | –
2 | C=C1C(=O)c2cc3c(cc2C(c2cc(OC)c(OC)c(OC)c2)[C@@H]1C(=O)O)OCO3 (stereo partly specified) | – | > 100 | – | > 100 µM | – | > 100 µM | – | > 100 | – | > 100 µM | – | > 100 | – | > 100 µM | – | > 100 | – | – | – | –
3 | N#CC(/C(=N/NC(N)=S)C(=O)Nc1cccc(Cl)c1)c1ccccc1 (stereo unspecified) | – | > 100 | – | > 100 µM | – | > 100 µM | – | > 100 | – | > 100 µM | – | > 100 | – | > 100 µM | – | > 100 | – | – | – | –
4 | COC1=CC(=O)OC(/C=C(C)/C=C/C2=C(C)CCCC2(C)C)C1 (stereo unspecified) | – | > 100 | – | > 100 µM | – | > 100 µM | – | > 100 | – | > 100 µM | – | > 100 | – | > 100 µM | – | > 100 | – | – | – | –
5 | CCc1nc2ccccc2c(=O)n1/N=C(\N=Nc1ccc(Cl)cc1)c1ccccc1 | – | – | – | 36.9 µM | – | > 69.3 µM | – | 46.4 | – | 64.5 µM | – | 78.3 | – | 51.8 µM | – | 75.2 | – | – | – | –
6 | Cc1ccc(NC(=O)/C(=N\NC(N)=S)C(C#N)c2ccccc2C)cc1C (stereo unspecified) | – | > 100 | – | > 100 µM | – | > 100 µM | – | > 100 | – | > 100 µM | – | > 100 | – | > 100 µM | – | > 100 | – | – | – | –
7 | CCOC(=O)Nc1ccc2c(c1)N(C(=O)CCN(CC)CC)c1ccccc1S2 | 19.7 | > 81.8 | 29.6 | 33.9 µM and 96.4 µM | 17 | 37.1 µM and 167 µM | 11.4 | 30.6 | 12.5 | > 31.6 µM and 39.9 µM | – | 76.6 | 12.7 | 48.5 µM and 43.5 µM | 74.2 | 141 | 31.3 | > 94.3 | – | –
8 | O=C1C(=C([O-])c2ccccc2)C(=O)c2ccccc21.O=C1C(=C([O-])c2ccccc2)C(=O)c2ccccc21.[Co+2] | > 100 | > 100 | > 100 | > 100 µM | 80.6 | > 100 µM | 57.3 | > 100 | > 100 | > 100 µM | > 100 | > 100 | > 100 | > 100 µM | > 100 | > 100 | – | – | – | –
9 | OCCCc1cnco1 | – | > 100 | – | > 100 µM | – | – | – | > 100 | – | > 100 µM | – | > 100 | – | > 100 µM | – | > 100 | – | – | – | –
10 | CCC(C)CC(C)C(=O)c1c(O)ccn(O)c1=O (stereo unspecified) | 0.631 | > 100 | 27.2 | > 100 µM | 2.46 | > 100 µM | – | – | 1.08 | > 100 µM | 17.8 | > 100 | 1.04 | 8.08 µM | – | – | 3.09 | > 100 | 1.87 | > 100
11 | CCCCCCc1cc2cc(-c3csc(/C=C/c4ccccc4)n3)c(=O)oc2cc1O | 6.13 | 80.3 | > 100 | > 100 µM | 3.93 | 17.9 µM | 19 | 48.5 | 3.39 | 12.1 µM | 29 | 69.5 | 10 | 23 µM | – | – | 4.62 | 44 | 12.9 | 27.2
12 | Fc1ccc(C2SCc3nc4ccccc4n32)cc1F (stereo unspecified) | – | > 100 | – | – | – | 61.7 µM | – | > 100 | – | > 100 µM | – | 82.3 | – | > 100 µM | – | > 100 | – | – | – | –
13 | CC(=O)CC(=O)NC=O | – | > 100 | – | > 100 µM | – | > 100 µM | – | > 100 | – | > 100 µM | – | > 100 | – | > 100 µM | – | > 100 | – | – | – | –
14 | NC(=S)N/N=C(\CCC(=O)Nc1ccccc1[N+](=O)[O-])CC(=O)c1ccco1 | – | > 100 | – | > 100 µM | – | > 100 µM | – | > 100 | – | > 100 µM | – | > 100 | – | > 100 µM | – | > 100 | – | – | – | –
15 | O=C(O)CCC1CCc2cccc(OCC(=O)O)c2C1=O (stereo unspecified) | – | > 100 | – | > 100 µM | – | – | – | > 100 | – | > 100 µM | – | > 100 | – | > 100 µM | – | > 100 | – | – | – | –
16 | O=Cc1ccc(-c2ccc(-c3ccc(C=O)o3)[se]2)o1 | > 100 | > 100 | > 100 | > 100 µM | 16.3 | 31.1 µM | > 100 | > 100 | > 100 | > 100 µM | 7.73 | > 100 | > 100 | > 100 µM | – | – | 6.35 | > 100 | > 100 | > 100
17 | CCOC(=O)[C@@H](C)C[C@H](Cc1ccccc1)NC(=O)c1csc([C@@H](C[C@H](C(C)C)N(C)C(=O)[C@@H](NC(=O)[C@H]2C[C@H](O)CCN2C)C(C)C)OC(C)=O)n1 | 0.00252 | > 16.7 | 0.0023 | > 16.7 µM | < 0.00167 | 0.0367 µM | 0.0682 | > 16.7 | – | – | 0.426 | > 16.7 | 0.00452 | 0.0157 µM | 0.05 | > 16.7 | < 0.00167 | > 16.7 | – | –
18 | CC(=O)N(CCN1C(=O)c2ccccc2C1=O)CCN1C(=O)c2ccccc2C1=O | – | > 100 | – | – | – | > 100 µM | – | > 100 | – | > 100 µM | – | > 100 | – | – | – | > 100 | – | – | – | –
19 | O=C(N/C=C/C=C/Sc1ccccc1)OCc1ccccc1 | – | > 100 | – | 31.9 µM | – | 29.7 µM | – | 37.2 | – | 38.1 µM | – | 64.7 | – | 30.4 µM | – | 53.6 | – | – | – | –
20 | O=[N+]([O-])c1ccc(/C(Cl)=C/c2ccc(/C=C(\Cl)c3ccc([N+](=O)[O-])cc3[N+](=O)[O-])cc2)c([N+](=O)[O-])c1 | – | – | – | > 100 µM | – | > 100 µM | – | > 100 | – | > 100 µM | – | > 100 | – | > 100 µM | – | > 100 | – | – | – | –
